# Data: patent US20230027929A1, “MrgprX2 Antagonists and Uses Thereof” (Dermira, Inc., priority 2019, published 2023)
# Target: T1, hMrgpMRGPRX2 (Homo sapiens, UniProt Q96LB1)
# T1 construct: expressed in transfected cells
# T1 sequence (Q96LB1 1-330): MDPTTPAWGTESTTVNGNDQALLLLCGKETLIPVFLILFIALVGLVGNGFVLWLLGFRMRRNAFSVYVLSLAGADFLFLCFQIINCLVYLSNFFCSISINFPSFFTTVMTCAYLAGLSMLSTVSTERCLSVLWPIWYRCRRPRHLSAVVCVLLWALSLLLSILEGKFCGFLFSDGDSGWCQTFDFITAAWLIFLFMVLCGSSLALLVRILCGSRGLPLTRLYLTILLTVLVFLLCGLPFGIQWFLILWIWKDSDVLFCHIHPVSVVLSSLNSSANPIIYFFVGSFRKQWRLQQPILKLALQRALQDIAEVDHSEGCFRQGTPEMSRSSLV
# Assay: FLIPR intracellular calcium mobilization, antagonist activity in recombinant hMrgpMRGPRX2 expressing cells
# Type: cell-based
# Details: read-out: Human MrgprX2 Antagonist pIC50 (converted)
# Summary of the method: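 Antagonist activity was read as inhibition of intracellular calcium mobilization (FLIPR) in recombinant cells expressing human MrgprX2. Potency was also checked in LAD-2 human mast cells with endogenous receptor, and orthologue activity in cells expressing mouse MrgprB2, mouse MrgprA1, and gerbil, Chinese hamster and cynomolgus orthologues.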
row,SMILES,IC50
1,CCN(C[C@@H](O)C(F)(F)F)C(=O)Nc1cnc(-c2cc(F)ccc2F)cn1 [Compound E237],603 nM
2,CCN(C[C@@H](O)C(F)(F)F)C(=O)Nc1cnc(Oc2cccc(F)c2F)cn1 [Compound E239],6.61 nM
3,CN(C[C@@H](O)C(F)(F)F)C(=O)Nc1cnc(Oc2cccc(F)c2F)cn1 [Compound E243],58.9 nM
4,CCN(C[C@@H](O)C(F)(F)F)C(=O)Nc1cnc(Oc2c(F)cccc2F)cn1 [Compound E244],26.9 nM
5,CCN(C[C@@H](O)C(F)(F)F)C(=O)Nc1cnc(Oc2cccc(C#N)c2F)cn1 [Compound E246],2140 nM
6,CCN(C[C@@H](O)C(F)(F)F)C(=O)Nc1cnc(Oc2ccccc2F)cn1 [Compound E248],8.51 nM
7,CCN(C[C@@H](O)C(F)(F)F)C(=O)Nc1cnc(Oc2cccc(F)c2C#N)cn1 [Compound E251],26.9 nM
8,CCN(C[C@@H](O)C(F)(F)F)C(=O)Nc1cnc(Oc2ccc(F)cc2C#N)cn1 [Compound E254],30.9 nM
9,CCN(C[C@@H](O)C(F)(F)F)C(=O)Nc1cnc(Oc2ccc(C#N)cc2F)cn1 [Compound E256],347 nM
10,CCN(C[C@@H](O)C(F)(F)F)C(=O)Nc1cnc(Oc2ccc(Cl)cc2F)cn1 [Compound E257],14.8 nM
11,CCN(C[C@@H](O)C(F)(F)F)C(=O)Nc1cnc(OCc2cccc(F)c2)cn1 [Compound E262],676 nM
12,CCN(C[C@@H](O)C(F)(F)F)C(=O)Nc1cnc(Oc2ccc(C)cc2F)cn1 [Compound E263],24.5 nM
13,CCN(C[C@@H](O)C(F)(F)F)C(=O)Nc1cnc(Oc2ccc(F)cc2C(F)(F)F)cn1 [Compound E264],295 nM
14,CC(C)C(=O)Nc1ccc(Cc2ccccc2F)cn1 [Compound E268],501 nM
15,"CC1(C)C(C(=O)Nc2cc(C(=O)NCC(F)(F)F)ccn2)C1(C)C [Compound E269, 2-[(2,2,3,3-tetramethylcyclopropanecarbonyl)amino]-N-(2,2,2-trifluoroethyl)pyridine-4-carboxamide]",3160 nM
16,"CC1(C)C(C(=O)Nc2ccc(CN3CCCC3)cn2)C1(C)C [Compound E270, 2,2,3,3-tetramethyl-N-[5-(pyrrolidin-1-ylmethyl)-2-pyridyl]cyclopropanecarboxamide]",5250 nM
17,"CC1(C)C(C(=O)Nc2ccc(-c3ncon3)cn2)C1(C)C [Compound E271, 2,2,3,3-tetramethyl-N-[5-(1,2,4-oxadiazol-3-yl)-2-pyridyl]cyclopropanecarboxamide]",31.6 nM
18,"Cc1nc(-c2ccc(NC(=O)C3C(C)(C)C3(C)C)nc2)no1 [Compound E272, 2,2,3,3-tetramethyl-N-[5-(5-methyl-1,2,4-oxadiazol-3-yl)-2-pyridyl]cyclopropanecarboxamide]",8.51 nM
19,"CC1(C)C(C(=O)Nc2ccc(-c3cnco3)cn2)C1(C)C [Compound E273, 2,2,3,3-tetramethyl-N-(5-oxazol-5-yl-2-pyridyl)cyclopropanecarboxamide]",661 nM
20,"CC1(C)C(C(=O)Nc2ccc(-c3ccno3)cn2)C1(C)C [Compound E274, N-(5-isoxazol-5-yl-2-pyridyl)-2,2,3,3-tetramethyl-cyclopropanecarboxamide]",20.4 nM
21,"CC1(C)C(C(=O)Nc2ccc(-c3ccon3)cn2)C1(C)C [Compound E275, N-(5-isoxazol-3-yl-2-pyridyl)-2,2,3,3-tetramethyl-cyclopropanecarboxamide]",12.3 nM
22,"CC1(C)C(C(=O)Nc2ccc(Oc3cncc(F)c3)nn2)C1(C)C [Compound E288, N-[6-[(5-fluoro-3-pyridyl)oxy]pyridazin-3-yl]-2,2,3,3-tetramethyl-cyclopropanecarboxamide]",9120 nM
23,"CCN(C[C@@H](O)C(F)(F)F)C(=O)Nc1cc(Oc2ccccc2F)ncn1 [Compound E290, 1-ethyl-3-[6-(2-fluorophenoxy)pyrimidin-4-yl]-1-[(2R)-3,3,3-trifluoro-2-hydroxy-propyl]urea]",692 nM
24,CC1(C)C(C(=O)Nc2ccc(Oc3cncc(F)c3)cn2)C1(C)C [Compound E0530],2 nM

# Second part, the compound after the results:
row,IC50,SMILES
1,631 nM,"CC(C)N(C)C(=O)Nc1cnc(Oc2cc(F)cc(F)c2)cn1 [Compound E234, 3-[5-(3,5-difluorophenoxy)pyrazin-2-yl]-1-isopropyl-1-methyl-urea]"
2,1410 nM,CCN(C[C@H](C)O)C(=O)Nc1cnc(Oc2cc(F)cc(F)c2)cn1 [Compound E235]
3,31.6 nM,CCN(C[C@@H](O)C(F)(F)F)C(=O)Nc1cnc(Oc2cc(F)cc(F)c2)cn1 [Compound E236]
4,45.7 nM,CN(C[C@@](C)(O)C(F)(F)F)C(=O)Nc1cnc(Oc2cc(F)cc(F)c2)cn1 [Compound E238]
5,110 nM,CCN(C[C@@H](O)C(F)(F)F)C(=O)Nc1cnc(Oc2ccc(F)c(F)c2)cn1 [Compound E240]
6,1.7 nM,CCN(C[C@@H](O)C(F)(F)F)C(=O)Nc1cnc(Oc2cc(F)ccc2F)cn1 [Compound E241]
7,7410 nM,CCN(C[C@@H](O)C(F)(F)F)C(=O)Nc1cnc(Oc2cc(F)cc(F)c2)c(C)n1 [Compound E242]
8,8.51 nM,CN(C[C@@H](O)C(F)(F)F)C(=O)Nc1cnc(Oc2cc(F)ccc2F)cn1 [Compound E245]
9,302 nM,CCN(C[C@@H](O)C(F)(F)F)C(=O)Nc1cnc(Oc2cccc(F)c2)cn1 [Compound E247]
10,1.62 nM,CCN(C[C@@H](O)C(F)(F)F)C(=O)Nc1cnc(Oc2ccc(F)cc2F)cn1 [Compound E249]
11,2.57 nM,CN(C[C@@](C)(O)C(F)(F)F)C(=O)Nc1cnc(Oc2cc(F)ccc2F)cn1 [Compound E250]
12,589 nM,CCN(C[C@@H](O)C(F)(F)F)C(=O)Nc1cnc(Oc2ccc(F)cc2)cn1 [Compound E252]
13,3.89 nM,CN(C[C@@](C)(O)C(F)(F)F)C(=O)Nc1cnc(Oc2ccc(F)cc2F)cn1 [Compound E253]
14,13.2 nM,CN(C[C@@H](O)C(F)(F)F)C(=O)Nc1cnc(Oc2ccc(F)cc2F)cn1 [Compound E255]
15,1.55 nM,CCN(C[C@@](C)(O)C(F)(F)F)C(=O)Nc1cnc(Oc2ccc(F)cc2F)cn1 [Compound E258]
16,1.7 nM,CCN(C[C@@](C)(O)C(F)(F)F)C(=O)Nc1cnc(Oc2cc(F)ccc2F)cn1 [Compound E259]

row,IC50,SMILES
1,4.07 nM,CCN(C[C@@H](O)C(F)(F)F)C(=O)Nc1cnc(Oc2ccc(F)cc2Cl)cn1 [Compound E260]
2,380 nM,CCN(C[C@@H](OC)C(F)(F)F)C(=O)Nc1cnc(Oc2ccc(F)cc2F)cn1 [Compound E261]
3,501 nM,"CC(C)C(=O)Nc1ccc(Cc2cccc(F)c2)cn1 [Compound E276, N-[5-[(3-fluorophenyl)methyl]-2-pyridyl]-2-methyl-propanamide]"
4,1910 nM,"NS(=O)(=O)N1CCC[C@@H]1C(=O)Nc1ccc(Oc2ccc(F)c(F)c2)cn1 [Compound E277, (2R)-N-[5-(3,4-difluorophenoxy)-2-pyridyl]-1-sulfamoyl-pyrrolidine-2-carboxamide]"
5,2630 nM,"CN1CCC[C@@H]1C(=O)Nc1ccc(Oc2ccc(F)c(F)c2)cn1 [Compound E278, (2R)-N-[5-(3,4-difluorophenoxy)-2-pyridyl]-1-methyl-pyrrolidine-2-carboxamide]"
6,240 nM,NS(=O)(=O)N1CCC[C@@H]1C(=O)Nc1ccc(Oc2cc(F)cc(F)c2)cn1 [Compound E279]
7,589 nM,NS(=O)(=O)N1CCC[C@@H]1C(=O)Nc1ccc(Oc2cc(F)ccc2F)cn1 [Compound E280]
8,81.3 nM,C[C@]1(C(=O)Nc2ccc(Oc3cc(F)ccc3F)cn2)CCCN1S(N)(=O)=O [Compound E281]
9,27.5 nM,C[C@]1(C(=O)Nc2ccc(Oc3cc(F)cc(F)c3)cn2)CCCN1S(N)(=O)=O [Compound E282]
10,562 nM,NS(=O)(=O)N1CCC[C@H]1C(=O)Nc1ccc(Oc2cc(F)cc(F)c2)cn1 [Compound E283]
11,1780 nM,"CC1(C)CC(=O)N(c2ccc(Oc3ccc(F)c(F)c3)cn2)C1 [Compound E284, 1-[5-(3,4-difluorophenoxy)-2-pyridyl]-4,4-dimethyl-pyrrolidin-2-one]"
12,257 nM,"CC1(C)CCN(c2ccc(Oc3ccc(F)c(F)c3)cn2)C1=O [Compound E285, 1-[5-(3,4-difluorophenoxy)-2-pyridyl]-3,3-dimethyl-pyrrolidin-2-one]"
13,2290 nM,"CCN(C[C@@H](O)C(F)(F)F)S(=O)(=O)Nc1ccc(Oc2ccc(F)c(F)c2)cn1 [Compound E286, 5-(3,4-difluorophenoxy)-2-[[ethyl-[(2R)-3,3,3-trifluoro-2-hydroxy-propyl]sulfamoyl]amino]pyridine]"
14,794 nM,"CC(C)C(=O)Nc1ncc(Oc2cccc(F)c2)cc1O [Compound E287, N-[5-(3-fluorophenoxy)-3-hydroxy-2-pyridyl]-2-methyl-propanamide]"
15,724 nM,"CCN(C[C@@H](O)C(F)(F)F)C(=O)Nc1cc(Oc2ccc(F)c(F)c2)ncn1 [Compound E289, 3-[6-(3,4-difluorophenoxy)pyrimidin-4-yl]-1-ethyl-1-[(2R)-3,3,3-trifluoro-2-hydroxy-propyl]urea]"
16,891 nM,"CCN(C[C@@H](O)C(F)(F)F)C(=O)Nc1cc(Oc2cccc(F)c2)ncn1 [Compound E291, 1-ethyl-3-[6-(3-fluorophenoxy)pyrimidin-4-yl]-1-[(2R)-3,3,3-trifluoro-2-hydroxy-propyl]urea]"
